The test system of data set [1] is MDA-MB-231, SK-OV-3 and MALME-3M cell lines. The data set is described as follows: Western blot analysis of caspase processing and PARP cleavage. It is filed as cell-based. How it is done:
(§1) Treatment with SM-164 at 1 nM for 12 h induced 32%, 33%, and 37% of the MDA-MB-231, SK-OV-3 and MALME-3M cells to undergo apoptosis, respectively (FIGS. 12-14).
Background: In western blotting, separated proteins are transferred to a membrane and probed.

The next data set concerns OVCAR-4 cells. In words: Trypan blue cell viability assay, OVCAR-4. The format is cell-based. To be noted: 100 nM, 2 days. How it is done: (§2) 0.3×10^6 cells were seeded in 6 well plates and incubated at 37° C. in an atmosphere of 95% air and 5% CO2 without or with tested compound for 2 days. A 1:1 dilution of 0.4% Trypan blue (Invitrogen Corporation) was used to determine cell viability.

Data set [2] relates to MDA-MB-231 breast cancer cell line. In words: Apoptosis assay (Annexin V/P.I.), MDA-MB-231. It is filed as cell-based, human. To be noted: 1 nM for 12 h. How it is done: Analysis of apoptosis was performed using an apoptosis detection kit (BioVision Research Products, Mountain View, Calif.) according to the manufacturer's protocol. Briefly, cells were treated with Smac mimetics for 12 hours, harvested and washed with ice-cold PBS. Cells were stained with Annexin V-FITC and Propidium iodide (P.I.) for 15 minutes at room temperature in the dark and immediately analyzed by FACS calibur flow cytometer (Becton Dickinson, Erembodegem, Belgium). Cells that were stained Annexin V (+) and P.I. (−) were considered early-stage apoptotic cells. Cells that were stained annexin V (+) and P.I. (+) were considered late-stage apoptotic cells and cells that were stained annexin V (−) and P.I. (+) were considered necrotic cells (FIG. 6).
as §1

The test system of data set [3] is XIAP stably transfected Jurkat leukemia cell line (XIAP-JK) and vector control cell line (VEC-JK). In words: XIAP-overexpressing Jurkat cells, Smac mimetics with TNFα. It is filed as cell-based. An excerpt:
The effect of XIAP overexpression in cancer cells on TNFα-dependent apoptosis induction by Smac mimetics was investigated. Since stable transfection of XIAP in those sensitive cancer cell lines was unsuccessful, the previously well-characterized XIAP stably transfected Jurkat leukemia cell line (XIAP-JK) and its vector control cell line (VEC-JK) were employed (Wilkinson et al., Mol. Cell. Biol. 24:7003 (2004)). The VEC-JK cell line with low expression of XIAP was sensitive to SM-122 or SM-164 in combination with TNFα (FIG. 43).

Data set [4] relates to MDA-MB-231 (2LMP) human breast cancer cells. In words: Cell growth inhibition by cisplatin or mitoxantrone with SH-164. It is filed as cell-based. To be noted: 100 nM. How it is done: (§3) Cells were seeded in 96-well flat bottom cell culture plates at a density of 3000 cells/well with a tested compound and incubated at 37° C. in an atmosphere of 95% air and 5% CO2 for 4 days. The rate of cell growth inhibition after treatment with different concentrations of the compound was determined using a WST-8 kit (2-(2-methoxy-4-nitrophenyl)-3-(4-nitrophenyl)-5-(2, 4 disulfophenyl)-2H-tetrazolium monosodium salt; Dojindo Molecular Technologies, Inc., Gaithersburg, Md.). WST-8 was added at a final concentration of 10% to each well, and then the plates were incubated at 37° C. for 2-3 hrs. The absorbance of the samples was measured at 450 nm using a ULTRA Tecan Reader (Molecular Device).

The subject of data set [5] is resistant cancer cell lines (MDA-MB-453 breast, DU-145 prostate, MDA-MB-435 melanoma). The data set is described as follows: Secreted TNFα in cell culture medium (ELISA), resistant lines. It is filed as cell-based. As to the method: (§4) To explore whether the resistance of cancer cells to Smac mimetics is due to the lack of secreted TNFα, the levels of secreted TNFα were examined. Secreted TNFα concentrations were determined in 200 μl of cell culture medium using the Quantikine HS Human TNFα ELISA kit (R&D Systems). The assay was performed according to the manufacturer's instructions.
(In general: ELISA stands for enzyme-linked immunosorbent assay.)

A further data set relates to MAMLE-3M cells. The data set is described as follows: Trypan blue cell viability assay, MAMLE-3M. The format is cell-based. As to conditions: 100 nM, 2 days. How it is done: as §2
A further data set relates to MDA-MB-231 cells. In words: Trypan blue cell viability assay, MDA-MB-231. The format is cell-based, human. To be noted: 100 nM, 2 days. As to the method: as §2
Data set [6] has as its target cIAP-1 protein containing both BIR2 and BIR3 domains (Homo sapiens, UniProt Q13490). The data set is described as follows: Fluorescence-polarization based binding assay, cIAP-1 BIR2-BIR3.
The test system of data set [7] is HCT116 and MDA-MB-453 cell lines. The data set is described as follows: Activity with exogenous TNFα in resistant cancer cell lines. The format is cell-based.
In data set [8] the test system is MDA-MB-231 xenograft tumor tissues. In words: cIAP-1 degradation and apoptosis in MDA-MB-231 xenograft tumor and normal tissues. It is filed as in vivo, mice. How it is done: To further investigate its therapeutic potential and in vivo mechanism, SM-164 was evaluated in the MDA-MB-231 xenograft model in mice. […] A single dose of SM-164 at 5 mg/kg decreased the level of cIAP-1 protein within 1 h and the effect lasted for at least 24 h. […] Apoptosis was examined by TUNEL staining using the In situ Cell Death Detection Kit (Roche Applied Science). To determine apoptosis in xenograft tumor and normal mouse tissues, severe combined immunodeficient (SCID) mice bearing established tumor were treated with Smac mimetics. Tissues were harvested and TUNEL staining was performed on formaldehyde-fixed, paraffin-embedded tissues. Paraffin-embedded tissue sections, mounted on slides, were deparaffinized and rehydrated by washing in a descending series of alcohol solutions (100%, 95%, 70% and 50%) and PBS. Antigen retrieval was performed by the microwave oven method using a commercially available antigen retrieval buffer (Covance Research Products, Inc.). Tissue sections were blocked with 3% BSA and 20% normal bovine serum in PBS for 30 min at room temperature (RT) to block unspecific binding sites. Tissue sections were incubated in 100 μl of TUNEL mixture [TUNEL mixture=10 μl of Enzyme solution (Vial 1)+90 μl of Label solution (Vial 2)] for 60 min at RT. Tissue section incubated in 90 μl of Label solution (Vial 2), instead of TUNEL mixture was used as negative control. Tissue section preincubated in DNase I recombination in 3000 U/ml of PBS, 1 mg/ml BSA for 10 min RT, followed by incubation with TUNEL mixture was used as positive control. Tissues slides were rinsed with PBS 5 min ×3, and stained with Propidium iodide and mounted and observed under a fluorescent microscope. […] The strong apoptosis induction by SM-164 was still evident at the 24 h time point. […] In contrast to the strong apoptosis induction and damage in xenograft tumor tissues, SM-164 has no effect on all the normal mouse tissues examined, including highly proliferative tissues such as the small intestine, stomach, liver and spleen (FIGS. 47-49).
Using the MDA-MB-231 xenograft model, SM-122 was also examined for its ability to induce cIAP-1 degradation and apoptosis in tumor tissues in vivo.

The subject of a further data set is SK-OV-3. In words: Cell growth inhibition, WST assay, SK-OV-3. The format is cell-based. To be noted: Homo sapiens. How it is done: as §3
Data set [9] relates to Sensitive cancer cell lines. In words: Secreted TNFα in cell culture medium (ELISA), sensitive lines. It is filed as cell-based. As to the method: as §4

For orientation: Ki means the equilibrium dissociation constant of an inhibitor or competing ligand from its target. A lower Ki goes with tighter binding. As a reminder, the IC50 is the concentration that gives 50% inhibition. Lower therefore signals greater potency in that assay.

Chain of cIAP-1 protein containing both BIR2 and BIR3 domains (Q13490 174-352 limits assumed): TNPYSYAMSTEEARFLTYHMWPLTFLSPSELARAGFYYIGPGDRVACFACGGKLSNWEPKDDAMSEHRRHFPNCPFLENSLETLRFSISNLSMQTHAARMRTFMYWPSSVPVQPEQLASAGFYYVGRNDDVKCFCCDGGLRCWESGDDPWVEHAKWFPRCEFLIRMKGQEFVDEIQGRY

As to `CN[C@@H](C)C(=O)N[C@H]1CCCC[C@H]2CC[C@@H](C(=O)N[C@@H](c3ccccc3)c3cn(CCCCc4ccc(CCCCn5cc([C@@H](NC(=O)[C@@H]6CC[C@@H]7CCCC[C@H](NC(=O)[C@H](C)NC)C(=O)N76)c6ccccc6)nn5)cc4)nn3)N2C1=O` [SH-164], in data set [1] (SM-164 at 1 nM), the “induction of cell death, caspase processing and PARP cleavage, comparison” value is recorded as “as effective as SM-122 at 1,000 nM”. Besides, the “levels of pro-caspase-3, -8 and -9 (cleaved PARP increased)” value in data set [1] (concentration as low as 1 nM) was “markedly decreased”. In addition, the cell death result in the data set with OVCAR-4 cells, in the data set on MAMLE-3M cells and in the data set on MDA-MB-231 cells was “at least 70%” each time. Moreover, the cells undergoing apoptosis in data set [2] was 32%. Moreover, the “sensitivity in combination with TNFα” value in [3] (VEC-JK cell line) is listed as “sensitive”; in [3] (XIAP-JK cell line), “much less effective than in the VEC-JK cell line”. The “sensitization to growth inhibition by cisplatin and mitoxantrone” value in data set [4] was “sensitized the cells to growth inhibition by both agents”. In addition, the “induction of TNFα” value in data set [5] is on record as “failed to induce detectable levels of TNFα”. In data set [6], the Ki was determined as 0.31 nM. The “more potent than SM-122 to cIAP-1” value in data set [6] stood at 9 times. Besides, the “effect of exogenous TNFα on activity” value in [7] is on record as “significantly enhanced”. Moreover, in data set [8] (3 h time point, persisted for 24 h), the “activation of caspase-8, -9, and -3 and cleavage of PARP” value is “Robust activation”. For the same molecule, the “TUNEL positive tumor cells” value in data set [8] (6 h time point) was “more than 50%”. For the same molecule, the “H&E staining of tumor tissues” value in data set [8] (mouse, in vivo) was “profound damage to tumor tissues”. For the same molecule, the “duration of cIAP-1 decrease” value in [8] (single dose 5 mg/kg) is “at least 24 h”. Further, the “time to decrease of cIAP-1 protein level in tumor” value in data set [8] (single dose 5 mg/kg) was not above 1 h. In data set [8] (small intestine, stomach, liver, spleen etc.), the “effect on normal mouse tissues” value is given as “no effect”. The molecule further had an IC50 in the data set with SK-OV-3 of less than 10 nM. For the same molecule, the “secretion of TNFα” value in data set [9] was “further enhanced”.

(Values after US8202902B2, “Bivalent SMAC mimetics and the uses thereof” (The Regents of the University of Michigan, priority 2006, dated 2012).)
